This note sets out measurements from US7560466B2, “Methods of treating or preventing autoimmune diseases with 2,4-pyrimidinediamine compounds” (Rigel Pharmaceuticals, Inc., priority 2003, dated 2009).

The target of one test is T1, Syk kinase (Homo sapiens, UniProt P43405).
T1 construct: purchased Upstate, Lake Placid N.Y
Briefly: Syk kinase biochemical fluorescence polarization assay. The following applies: isolated Syk kinase, read-out: fp_syk, 11pt. The method, then: Many of the 2,4-pyrimidinediamine compounds were tested for the ability to inhibit Syk kinase catalyzed phosphorylation of a peptide substrate in a biochemical fluorescenced polarization assay with isolated Syk kinase. In this experiment, Compounds were diluted to 1% DMSO in kinase buffer (20 mM HEPES, pH 7.4, 5 mM MgCl2, 2 mM MnCl2, 1 mM DTT, 0.1 mg/mL acetylated Bovine Gamma Globulin). Compound in 1% DMSO (0.2% DMSO final) was mixed with ATP/substrate solution at room temperature. Syk kinase (Upstate, Lake Placid N.Y.) was added to a final reaction volume of 20 uL, and the reaction was incubated for 30 minutes at room temperature. […] EDTA (10 mM final)/anti-phosphotyrosine antibody (1× final)/fluorescent phosphopeptide tracer (0.5× final) was added in FP Dilution Buffer to stop the reaction for a total volume of 40 uL according to manufacturer's instructions (PanVera Corporation) The plate was incubated for 30 minutes in the dark at room temperature. Plates were read on a Polarion fluorescence polarization plate reader (Tecan). Data were converted to amount of phosphopeptide present using a calibration curve generated by competition with the phosphopeptide competitor provided in the Tyrosine Kinase Assay Kit, Green (PanVera Corporation).
In Tabe 1, all reported values are IC50s (in μM).
In general terms: In fluorescence polarisation assays a small probe gives low polarisation when free and higher when bound to something large.

Test [1] concerns cultured human mast cells (CHMC), IgE-induced degranulation. Briefly: CHMC low cell density IgE activation: tryptase assay. Type of test: cell-based. The following applies: Homo sapiens, Mast cell, low cell density CHMC. The method in brief: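 Cord-blood CD34+-derived mucosal mast cells (SCF/IL-6 medium), 1000–1500 cells/well, preincubated with compound 1 h at 37°C, then anti-IgE stimulated 30 min at 37°C.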

For test [2], the system named is cultured human mast cells (CHMC), ionomycin-induced degranulation. Briefly: CHMC low cell density ionomycin activation: tryptase assay. The following applies: Homo sapiens, Mast cell, low cell density CHMC, ionomycin activation (2 μM final), 3pt, read-out: LD Tryptase, CHMC, Iono, 3pt. Type of test: cell-based.

Like-named read-outs stand apart in the source and are kept apart here.

For `Cn1nc(N)c2cc(Nc3ncc(F)c(Nc4ccc5c(c4)NC(=O)C(C)(C)O5)n3)ccc21` [Compound 806, N2-(3-A mino-1-methylindazol-5-yl)-N4-(2,2-dimethyl-3-oxo-4H-benz[1,4]oxazin-6-yl)-5-fluoro-2,4-pyrimidinediamine], the IC50 on Syk kinase (11pt) was less than 10 µM. Same read-out and setting: next, `Cc1nc2ccc(Nc3ncc(F)c(Nc4ccc5c(c4)NC(=O)C(C)(C)O5)n3)cc2[nH]1` [Compound 810, N4-(2,2-Dimethyl-3-oxo-4H-benz[1,4]oxazin-6-yl)-5-fluoro-N2-(2-methyl-3H-benzimidazol-5-yl)-2,4-pyrimidinediamine]: less than 10 µM; `Cc1nc2ccc(Nc3ncc(F)c(Nc4ccc5c(c4)NC(=O)[C@H](C)O5)n3)cc2[nH]1` [Compound 811, (S)-5-Fluoro-N2-(2-methyl-3H-benzimidazol-5-yl)-N4-(2-methyl-3-oxo-2H,4H-benz[1,4]oxazin-6-yl)-2,4-pyrimidinediamine]: less than 10 µM.

As for `CC(=O)NCCCn1ncc2cc(Nc3ncc(F)c(Nc4ccc5c(n4)NC(=O)C(C)(C)O5)n3)ccc21` [Compound 822, N2-[1-[3-(N-Acetylamino)propyl]indazol-5-yl]-N4-(2,2-dimethyl-3-oxo-4H-5-pyrid[1,4]oxazin-6-yl)-5-fluoro-2,4-pyrimidinediamine], at Syk kinase (11pt), the IC50 was less than 10 µM. With `Cc1nc2ccc(Nc3ncc(F)c(Nc4ccc5c(n4)NC(=O)C(C)(C)O5)n3)cc2[nH]1` [Compound 845, N4-(2,2-Dimethyl-3-oxo-4H-5-pyrid[1,4]oxazin-6-yl)-5-fluoro-N2-(2-methyl-3H-benzimidazol-5-yl)-2,4-pyrimidinediamine], the IC50 on Syk kinase (11pt) is less than 10 µM.

Regarding `CC1(C)Oc2ccc(Nc3nc(Nc4ccc5[nH]c(C(F)(F)F)nc5c4)ncc3F)nc2NC1=O` [Compound 846, N4-(2,2-Dimethyl-3-oxo-4H-5-pyrid[1,4]oxazin-6-yl)-5-fluoro-N2-(2-trifluoromethyl-1H-benzimidazol-5-yl)-2,4-pyrimidinediamine], at Syk kinase (11pt), the IC50 was less than 10 µM.

As for `Cc1nc2cc(Nc3ncc(F)c(Nc4ccc5c(c4)NC(=O)[C@H](C)O5)n3)ccc2n1C` [Compound 897], the IC50 at Syk kinase (11pt) is less than 10 µM. For the compound `Cc1nc2cc(Nc3ncc(F)c(Nc4ccc5c(n4)NC(=O)C(C)(C)O5)n3)ccc2n1C` [Compound 898, N2-(1,2-Dimethylbenzimidazol-5-yl)-N4-(2,2-dimethyl-3-oxo-4H-5-pyrid[1,4]oxazin-6-yl)-5-Fluoro-2,4-pyrimidinediamine], the IC50 at Syk kinase (11pt) is less than 10 µM. Take `Cc1nc2cc(Nc3ncc(F)c(Nc4ccc5c(c4)NC(=O)C(C)(C)O5)n3)ccc2n1CCO` [Compound 901]: the IC50 on Syk kinase (11pt) is less than 10 µM. Still for that read-out and setting: next, `Cc1nc2cc(Nc3ncc(F)c(Nc4ccc5c(c4)NC(=O)[C@H](C)O5)n3)ccc2n1CCO` [Compound 902]: less than 10 µM; `Cc1nc2cc(Nc3ncc(F)c(Nc4ccc5c(n4)NC(=O)C(C)(C)O5)n3)ccc2n1CCO` [Compound 903, N4-(2,2-Dimethyl-3-oxo-4H-5-pyrid[1,4]oxazin-6-yl)-5-fluoro-N2-[1-(2-hydroxyethyl)-2-methylbenzimidazol-5-yl)-2,4-pyrimidinediamine]: less than 10 µM.

For `Cc1nc2ccc(Nc3ncc(F)c(Nc4ccc5c(c4)NC(=O)C(C)S5(=O)=O)n3)cc2[nH]1` (stereo not shown) [Compound 909], the IC50 on Syk kinase (11pt) is less than 10 µM.

As for `CC1C(=O)Nc2cc(Nc3nc(Nc4ccc5[nH]c(C(F)(F)F)nc5c4)ncc3F)ccc2S1(=O)=O` (stereo not shown) [Compound 910, 5-Fluoro-N4-(2-methyl-1,1,3-trioxo-2H,4H-benzo[1,4]thiazin-6-yl)-N2-(2-trifluoromethyl-1H-benzimidazol-5-yl)-2,4-pyrimidinediamine], the IC50 at Syk kinase (11pt) is less than 10 µM. Turning to `CC1(C)Oc2ccc(Nc3nc(Nc4ccc5[nH]c(CN6CCOCC6)nc5c4)ncc3F)cc2NC1=O` [Compound 961, N4-(2,2-Dimethyl-3-oxo-4H-benz[1,4]oxazin-6-yl)-5-fluoro-N2-[2-(4-morpholinomethyl)-1H-benzimidazol-5-yl]-2,4-pyrimidinediamine], at Syk kinase (11pt), the IC50 was less than 10 µM. On the same count and under the same terms, next, `CC1(C)Oc2ccc(Nc3nc(Nc4ccc5[nH]c(CN6CCOCC6)nc5c4)ncc3F)nc2NC1=O` [Compound 962, N4-(2,2-Dimethyl-3-oxo-4H-5-pyrido[1,4]oxazin-6-yl)-5-fluoro-N2-[2-(4-morpholinomethyl)-1H-benzimidazol-5-yl]-2,4-pyrimidinediamine]: less than 10 µM; `CC1(C)Oc2ccc(Nc3nc(Nc4ccc5[nH]c(N6CCOCC6)nc5c4)ncc3F)cc2NC1=O` [Compound 976, N4-(2,2-Dimethyl-3-oxo-4H-benz[1,4]oxazin-6-yl)-5-fluoro-N2-[2-(4-morpholino)-1H-benzimidazol-5-yl]-2,4-pyrimidinediamine]: less than 10 µM; `CC1(C)Oc2ccc(Nc3nc(Nc4ccc5[nH]c(N6CCOCC6)nc5c4)ncc3F)nc2NC1=O` [Compound 977, N4-(2,2-Dimethyl-3-oxo-4H-5-pyrido[1,4]oxazin-6-yl)-5-fluoro-N2-[2-(4-morpholino)-1H-benzimidazol-5-yl]-2,4-pyrimidinediamine]: less than 10 µM. Consider `COc1c(C)cc(Nc2ncc(F)c(Nc3ccc4c(n3)NC(=O)C(C)(C)O4)n2)cc1C` [Compound 997, N2-(3,5-Dimethyl-4-methoxyphenyl)-N4-(2,2-dimethyl-3-oxo-4H-5-pyrid[1,4]oxazin-6-yl)-5-fluoro-2,4-pyrimidinediamine], for which, at Syk kinase (11pt), the IC50 was less than 10 µM.

With `CCOc1c(C)cc(Nc2ncc(F)c(Nc3ccc4c(c3)NC(=O)C(C)(C)O4)n2)cc1Cl` [Compound 1008], the IC50 at Syk kinase (11pt) was less than 10 µM. The same measure, in the same setting: next, `CC1(C)Oc2ccc(Nc3nc(Nc4ccc(-c5ncco5)cc4)ncc3F)cc2NC1=O` [Compound 1011]: less than 10 µM. With `CC1(C)Oc2ccc(Nc3nc(Nc4cccc(-c5cnco5)c4)ncc3F)cc2NC1=O` [Compound 1016], at Syk kinase (11-point), the IC50 was less than 10 µM. The same measure, in the same setting: next, `O=C1COc2ccc(Nc3ncc(F)c(Nc4ccc5c(c4)NC(=O)CO5)n3)cc2N1` [Compound 1083]: less than 10 µM. Regarding `COc1cc(Nc2ncc(F)c(Nc3ccc4c(n3)NCCO4)n2)cc(OC)c1OC` [Compound 1145, N4-(3,4-Dihydro-2H,4H-5-pyrid[1,4]oxazin-6-yl)-5-fluoro-N2-(3,4,5-trimethoxyphenyl)-2,4-pyrimidinediamine], at Syk kinase (4 uM ATP, 11pt), the IC50 is less than 10 µM.

Consider `COC(=O)CNC(=O)c1ccc(Nc2ncc(F)c(Nc3ccc4c(c3)NC(=O)C(C)(C)O4)n2)cc1` [Compound 1286], for which the IC50 is less than 10 µM in test [1] (3pt, read-out: LD Tryptase, CHMC, IgE, 3pt); less than 10 µM in test [1] (8pt, read-out: LD Tryptase, CHMC, IgE, 8pt); more than 10 µM in test [2]; less than 10 µM on Syk kinase (4 uM ATP, 11pt). `COC(=O)CCNC(=O)c1ccc(Nc2ncc(F)c(Nc3ccc4c(n3)NC(=O)C(C)(C)O4)n2)cc1` [Compound 1312, N4-(2,2-Dimethyl-3-oxo-4H-5-pyrid[1,4]oxazin-6-yl)-5-fluoro-N2-[4-[N-(2-methoxycarbonylethyl)aminocarbonyl]phenyl]-2,4-pyrimidinediamine]: at Syk kinase (4 uM ATP, 11pt), the IC50 is less than 10 µM.
